IC50, EC50 and bioavailability data for 1 compound are collected here from patent publication US20250115609A1, “AROMATIC HETEROCYCLIC COMPOUNDS, PREPARATION METHOD THEREFOR AND USES THEREOF” (Innovstone Therapeutics Limited, priority 2021, published 2025).

The target of one data set is hENPP1 enzyme (Homo sapiens (Human), UniProt P22413). Put plainly: ENPP1 enzymatic inhibition in biochemical assay (TMP-pNP hydrolysis, OD405). Particulars: ENPP1 enzymatic inhibition activity, TMP-pNP substrate, pH 9.5. The text has this:
ENPP1 was a transmembrane glycoprotein capable of hydrolyzing nucleotides and derivatives with a nucleotide-5′-monophosphate structure. ENPP1 was capable of hydrolyzing artificial thymidine 5′-monophosphate p-nitrophenyl ester (TMP-pNP) into nucleotide 5′-monophosphate and p-nitrophenol which was a chromogenic product. The formation amount of p-nitrophenol product could be directly measured by its absorbance at 405 nm, which was directly proportional to the enzyme activity.
The compound was dissolved in DMSO, with stock concentration of 1 mM, and diluted in a 4-fold serial gradient to make 10 concentration points. Echo was used to transfer 300 nL of gradient concentrations of compound to a 384-well assay plate (final concentration: starting at 10 μM, 4-fold serial gradient dilution, 10 concentration points). First, 15 μL of 0.2 ng/uL hENPP1 enzyme (2× final concentration) prepared in assay buffer (250 mM NaCl, 50 mM Tris, pH=9.5) was added to each well. Then, 15 μL of 400 μM TMP-pNP (2× final concentration) diluted in assay buffer was added. After incubating at 37° C. for 0.5 hrs, the OD405 nm value was read by the microplate reader. The percentage inhibition was calculated using the formula: % Inhibition Rate=(ODhigh signal control−ODsample well)/(ODhigh signal control−ODlow signal control)*100. The IC50 value was calculated using four-parameter fit. The high signal control was the DMSO group without inhibitors, and the low signal control was the blank control group.

The target of data set [1] is ENPP1 in cultured MDA-MB-231 cells (Homo sapiens (Human), UniProt P22413). Put plainly: ENPP1 enzymatic inhibition in cellular assay (MDA-MB-231 cells, TMP-pNP). The data set is classed as cell-based. The settings on record: ENPP1 enzymatic inhibition activity at the cellular level. On the procedure:
ENPP1 was mainly expressed on the surface of cell membranes and could hydrolyze 2′3′-cGAMP into 5′-GMP and 5′-AMP. Similarly, ENPP1 could also hydrolyze the synthetic phosphate TMP-pNP, generating nucleotide-5′-monophosphate and the chromogenic product p-nitrophenol. Therefore, TMP-pNP was used as a substrate to reflect the enzyme activity of ENPP1 in cultured MDA-MB-231 cells. The amount of p-nitrophenol formed in the culture medium was determined by absorbance at 405 nim, which was directly proportional to the activity of ENPP1.
MDA-MB-231 cells was seeded with a density of 6000 per well in 384-well plate and cultured overnight (about 18 hrs) at 37° C. The compound was diluted into a 50× serial gradient dilution using an assay buffer (250 mM NaCl, 50 mM Tris, pH=9.5), starting at 500 μM, and diluted in a 4-fold serial gradient to make 10 concentration points. The cell culture medium was removed, and 10 μL of gradient concentrations of compounds were added to each well of the 384-well assay plate (final concentration: starting at 10 μM, 4-fold serial gradient dilution, with 10 concentration points). Then, 10 μL of 1 mM TMP-pNP (2× final concentration) dissolved in the assay buffer was added to the well. After incubating at 37° C. for 3 hrs, the OD405 nm value was read by the microplate reader. The percentage inhibition was calculated using the formula: % Inhibition Rate=(ODhigh signal control−ODsample well)/(ODhigh signal control−ODlow signal control)*100. The IC50 value was calculated using four-parameter fit. The high signal control was the DMSO group without inhibitors, and the low signal control was the blank control group.

Data set [2] is described as follows: Pharmacokinetics in mice, compound concentration by LC-MS/MS. The settings on record: male, CD-1, mouse, plasma, 10 mg/kg, PO, 10 mpk vs IV, 2 mpk. The data set is classed as in vivo, CD-1 male mice.

ENPP1 in cultured MDA-MB-231 cells, sequence (P22413 whole entry): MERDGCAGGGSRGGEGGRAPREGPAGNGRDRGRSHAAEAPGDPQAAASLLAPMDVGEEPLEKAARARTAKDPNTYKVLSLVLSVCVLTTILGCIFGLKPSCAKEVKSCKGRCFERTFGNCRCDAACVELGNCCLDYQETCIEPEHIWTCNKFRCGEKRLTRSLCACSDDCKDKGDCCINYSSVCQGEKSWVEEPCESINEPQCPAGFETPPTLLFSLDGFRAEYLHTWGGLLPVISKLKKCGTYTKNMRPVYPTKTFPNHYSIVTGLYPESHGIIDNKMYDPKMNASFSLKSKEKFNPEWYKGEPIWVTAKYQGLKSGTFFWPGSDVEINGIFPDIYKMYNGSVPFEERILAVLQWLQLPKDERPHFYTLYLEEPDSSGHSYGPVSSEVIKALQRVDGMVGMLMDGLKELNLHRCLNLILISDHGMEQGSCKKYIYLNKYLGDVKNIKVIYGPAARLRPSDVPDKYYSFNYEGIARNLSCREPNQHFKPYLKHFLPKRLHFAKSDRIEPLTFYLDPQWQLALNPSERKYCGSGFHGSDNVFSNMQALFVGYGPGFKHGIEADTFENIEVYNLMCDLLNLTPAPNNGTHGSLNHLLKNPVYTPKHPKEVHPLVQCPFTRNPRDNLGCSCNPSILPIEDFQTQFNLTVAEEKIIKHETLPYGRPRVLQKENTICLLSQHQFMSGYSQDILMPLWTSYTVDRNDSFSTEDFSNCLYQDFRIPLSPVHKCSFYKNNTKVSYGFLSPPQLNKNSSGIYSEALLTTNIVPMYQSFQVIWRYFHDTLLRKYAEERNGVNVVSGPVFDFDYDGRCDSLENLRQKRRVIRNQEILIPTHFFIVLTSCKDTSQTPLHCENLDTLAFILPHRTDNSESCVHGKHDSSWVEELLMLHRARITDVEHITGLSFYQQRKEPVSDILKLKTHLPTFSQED
hENPP1 enzyme, sequence (P22413 whole entry): as above

Usually IC50 stands for the midpoint of a concentration-inhibition curve. A high value points to a need for much substance. As a reminder, the EC50 is the concentration that produces a half-maximal response. As usually defined, the bioavailability is dose-corrected exposure relative to a reference, in per cent. Take `COc1ccc2c3c(cnc2n1)COC(=O)N3Cc1c(F)cc(S(N)(=O)=O)cc1F` [Compound 006, 3,5-difluoro-4-((8-methoxy-2-oxo-2H-[1,3]oxazino[5,4-c][1,8]naphthyridin-1(4H)-yl)methyl)benzenesulfonamide]: at hENPP1 enzyme, the IC50 lay in the range of 0.1 to 0.2 nM. Also, the EC50 in data set [1] is less than 0.5 nM. This compound had a bioavailability in data set [2] of 92.6%.
